These results are taken from PubChem BioAssay (NCI).

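Compound exposure: 48 hours, 5 concentrations, 96-well plates. GI50 marks 50% less growth. TGI denotes the concentration required for complete inhibition of growth.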 Where a SMILES comes first, the peptide text is derived from it. The star is where a group is joined. Boc = CC(C)(C)OC(=O)*

The subject of one test is HCT-15 colon. The test can be described thus: NCI anticancer screen, dose series, 48 h.
Turning to `O=P(c1ccccc1)(c1ccccc1)N1O[C@@H](c2ccccc2)C=C[C@H]1c1ccccc1`, the TGI turned out to be 26.3 µM.
Take `Cc1c2c(n(CCc3ccc(Cl)cc3)c1C)NN=C(C#N)S2(=O)=O`: the TGI is more than 100 µM.
Molecule `CCN(C(=S)N[C@@H](Cc1ccccc1)C(=O)N[C@@H](CC(C)C)C(=O)OC)c1ccccc1` displayed a TGI of more than 100 µM.
Turning to `COc1ccc2cc(-c3ccc(-c4ccc(C(=N)N)s4)s3)ccc2c1`, the GI50 is 1.89 µM and the TGI was 3.7 µM.
As to `C/C(CC1C2CCCC1C2)=N\NC(N)=O` (stereo unspecified), the TGI was more than 100 µM.
`c1ccc2sc(SCSc3nc4ccccc4s3)nc2c1` registered a TGI of more than 100 µM.
`C1=CC2=CC=CC3c4nc5ccc6ccccc6c5nc4C(=C1)C23` (stereo unspecified): the TGI was more than 100 µM.
Still for that read-out and setting: the value for `O=C(CCCN1CCC2(CC1)CC(=O)N(N1CCOCC1)C2=O)c1ccccc1` was more than 100 µM; that for `COc1ccc(C(OCC2OC(n3cc(C)c(=O)[nH]c3=O)CC2n2cc(Cn3cc(F)c(=O)[nH]c3=O)nn2)(c2ccccc2)c2ccccc2)cc1` (stereo unspecified) was 23.3 µM; that for `CCN(CC)CCOc1ccc(N2C(=O)c3cc(OC)c(OC)cc3C2=O)cc1` was more than 100 µM.
Regarding `O=C(N=Nc1cc(Cl)ccc1Cl)NNc1cc(Cl)ccc1Cl`, the TGI was found to be 64.4 µM.
The same measure, in the same setting: the result for `COc1ccc(C#CC(=O)O)c(OC)c1` reads more than 100 µM.
The molecule `CCOC(=O)NC(=S)NN(C)C1=NCC(C)(C)S1` came in with a TGI of more than 100 µM.
As to `Cc1csc(-c2cn(C)c3c2C(=O)C(N)=CC3=O)n1`, the TGI is more than 100 µM.
`C/C=C/C=C/c1nc(C#N)c(N)o1` registered a TGI of more than 100 µM.
For the molecule `O=c1c2ccccc2nc2[nH][nH]c(=S)n12`, the TGI was more than 100 µM.
In turn, `CC(C)(C)OC(=O)NCC(=O)NCC(=O)NCC(=O)NCC(=O)O` (Boc-GGGG-OH) had a TGI of more than 100 µM.
On the same count and under the same terms, the value for `CC(C)COP(=O)(OCC(C)C)C(NS(=O)(=O)c1ccccc1)(C(F)(F)F)C(F)(F)F` was 23.8 µM.
Turning to `N#C/C(=C\c1cc(Br)c(O)c(Br)c1)c1cccnc1`, the TGI was found to be 44 µM.
In turn, `CC(O)C1CC1(CO)CNc1cc(Cl)nc(N)n1` (stereo unspecified) registered a TGI of more than 100 µM.
The molecule `CN(C)Cc1cc(C(=O)/C=C/c2ccc(O)cc2)cc(CN(C)C)c1O` had a TGI of more than 100 µM.

The next test concerns 786-0 renal. The test can be described thus: NCI anticancer screen, dose series, 48 h.
In turn, `O=P(c1ccccc1)(c1ccccc1)N1O[C@@H](c2ccccc2)C=C[C@H]1c1ccccc1` registered a TGI of 23.3 µM.
`Cc1c2c(n(CCc3ccc(Cl)cc3)c1C)NN=C(C#N)S2(=O)=O` returned a TGI of more than 100 µM.
Consider `CCN(C(=S)N[C@@H](Cc1ccccc1)C(=O)N[C@@H](CC(C)C)C(=O)OC)c1ccccc1`, for which the TGI was more than 100 µM.
Same read-out and setting: the result for `C/C(CC1C2CCCC1C2)=N\NC(N)=O` (stereo unspecified) reads more than 100 µM.
`c1ccc2sc(SCSc3nc4ccccc4s3)nc2c1` registered a TGI of more than 100 µM.
Still for that read-out and setting: the result for `C1=CC2=CC=CC3c4nc5ccc6ccccc6c5nc4C(=C1)C23` (stereo unspecified) reads more than 100 µM; that for `O=C(CCCN1CCC2(CC1)CC(=O)N(N1CCOCC1)C2=O)c1ccccc1`, more than 100 µM; that for `COc1ccc(C(OCC2OC(n3cc(C)c(=O)[nH]c3=O)CC2n2cc(Cn3cc(F)c(=O)[nH]c3=O)nn2)(c2ccccc2)c2ccccc2)cc1` (stereo unspecified), 21.7 µM.
Molecule `CCN(CC)CCOc1ccc(N2C(=O)c3cc(OC)c(OC)cc3C2=O)cc1` returned a TGI of more than 100 µM.
`COc1ccc(C#CC(=O)O)c(OC)c1` displayed a TGI of more than 100 µM.
In turn, `CCOC(=O)NC(=S)NN(C)C1=NCC(C)(C)S1` returned a TGI of more than 100 µM.
Same read-out and setting: the result for `O=C(CNc1ccccc1Cl)Nn1c(-c2ccccc2)nc2ccccc2c1=O` reads 40.2 µM.
Take `Cc1csc(-c2cn(C)c3c2C(=O)C(N)=CC3=O)n1`: the TGI was more than 100 µM.
As for `C/C=C/C=C/c1nc(C#N)c(N)o1`, the TGI is more than 100 µM.
For the molecule `O=c1c2ccccc2nc2[nH][nH]c(=S)n12`, the TGI was more than 100 µM.
Take `CC(C)(C)OC(=O)NCC(=O)NCC(=O)NCC(=O)NCC(=O)O` (Boc-GGGG-OH): the TGI was more than 100 µM.
`CC(C)COP(=O)(OCC(C)C)C(NS(=O)(=O)c1ccccc1)(C(F)(F)F)C(F)(F)F` had a TGI of 25.7 µM.
`N#C/C(=C\c1cc(Br)c(O)c(Br)c1)c1cccnc1` displayed a TGI of 70.5 µM.
`CC(O)C1CC1(CO)CNc1cc(Cl)nc(N)n1` (stereo unspecified) yielded a TGI of more than 100 µM.
On the same count and under the same terms, the result for `CN(C)Cc1cc(C(=O)/C=C/c2ccc(O)cc2)cc(CN(C)C)c1O` reads more than 100 µM.

For the next test, the system named is SNB-75 CNS. In words: NCI anticancer screen, dose series, 48 h.
In the case of `O=P(c1ccccc1)(c1ccccc1)N1O[C@@H](c2ccccc2)C=C[C@H]1c1ccccc1`, the TGI was found to be 26.5 µM.
Still for that read-out and setting: the result for `Cc1c2c(n(CCc3ccc(Cl)cc3)c1C)NN=C(C#N)S2(=O)=O` reads more than 100 µM; that for `CCN(C(=S)N[C@@H](Cc1ccccc1)C(=O)N[C@@H](CC(C)C)C(=O)OC)c1ccccc1`, more than 100 µM.
Take `COc1ccc2cc(-c3ccc(-c4ccc(C(=N)N)s4)s3)ccc2c1`: the GI50 was 10.4 µM and the TGI amounted to 26.6 µM.
`C/C(CC1C2CCCC1C2)=N\NC(N)=O` (stereo unspecified) came in with a TGI of more than 100 µM.
Molecule `c1ccc2sc(SCSc3nc4ccccc4s3)nc2c1` showed a TGI of more than 100 µM.
In turn, `C1=CC2=CC=CC3c4nc5ccc6ccccc6c5nc4C(=C1)C23` (stereo unspecified) came in with a TGI of more than 100 µM.
The molecule `O=C(CCCN1CCC2(CC1)CC(=O)N(N1CCOCC1)C2=O)c1ccccc1` showed a TGI of more than 100 µM.
`COc1ccc(C(OCC2OC(n3cc(C)c(=O)[nH]c3=O)CC2n2cc(Cn3cc(F)c(=O)[nH]c3=O)nn2)(c2ccccc2)c2ccccc2)cc1` (stereo unspecified): the TGI worked out at 42.5 µM.
On to `O=C(N=Nc1cc(Cl)ccc1Cl)NNc1cc(Cl)ccc1Cl`, for which the TGI stood at 57.5 µM.
The molecule `CCOC(=O)NC(=S)NN(C)C1=NCC(C)(C)S1` registered a TGI of more than 100 µM.
Molecule `O=C(CNc1ccccc1Cl)Nn1c(-c2ccccc2)nc2ccccc2c1=O` came in with a TGI of 63 µM.
`Cc1csc(-c2cn(C)c3c2C(=O)C(N)=CC3=O)n1` yielded a TGI of 6.48 µM.
Molecule `C/C=C/C=C/c1nc(C#N)c(N)o1` yielded a TGI of more than 100 µM.
On the same count and under the same terms, the result for `O=c1c2ccccc2nc2[nH][nH]c(=S)n12` reads more than 100 µM.
`CC(C)COP(=O)(OCC(C)C)C(NS(=O)(=O)c1ccccc1)(C(F)(F)F)C(F)(F)F` gave a TGI of 12.6 µM.
`N#C/C(=C\c1cc(Br)c(O)c(Br)c1)c1cccnc1` returned a TGI of more than 100 µM.
Molecule `CC(O)C1CC1(CO)CNc1cc(Cl)nc(N)n1` (stereo unspecified) showed a TGI of more than 100 µM.
`CN(C)Cc1cc(C(=O)/C=C/c2ccc(O)cc2)cc(CN(C)C)c1O` showed a TGI of 86.3 µM.

A further test deals with A498 renal. In words: NCI anticancer screen, dose series, 48 h.
Take `COc1ccc2cc(-c3ccc(-c4ccc(C(=N)N)s4)s3)ccc2c1`: the GI50 is 14.3 µM and the TGI is 42.3 µM.
The molecule `c1ccc2sc(SCSc3nc4ccccc4s3)nc2c1` showed a TGI of more than 100 µM.
Take `COc1ccc(C(OCC2OC(n3cc(C)c(=O)[nH]c3=O)CC2n2cc(Cn3cc(F)c(=O)[nH]c3=O)nn2)(c2ccccc2)c2ccccc2)cc1` (stereo unspecified): the TGI was 28.6 µM.
As to `CCN(CC)CCOc1ccc(N2C(=O)c3cc(OC)c(OC)cc3C2=O)cc1`, the TGI was more than 100 µM.
With `O=C(N=Nc1cc(Cl)ccc1Cl)NNc1cc(Cl)ccc1Cl`, the TGI turned out to be 82.3 µM.
On the same count and under the same terms, the value for `COc1ccc(C#CC(=O)O)c(OC)c1` was more than 100 µM; that for `CCOC(=O)NC(=S)NN(C)C1=NCC(C)(C)S1` was more than 100 µM.
Turning to `O=C(CNc1ccccc1Cl)Nn1c(-c2ccccc2)nc2ccccc2c1=O`, the TGI was more than 100 µM.
For `Cc1csc(-c2cn(C)c3c2C(=O)C(N)=CC3=O)n1`, the TGI was more than 100 µM.
On to `O=c1c2ccccc2nc2[nH][nH]c(=S)n12`, for which the TGI is more than 100 µM.
As to `CC(C)(C)OC(=O)NCC(=O)NCC(=O)NCC(=O)NCC(=O)O` (Boc-GGGG-OH), the TGI was more than 100 µM.
`CN(C)Cc1cc(C(=O)/C=C/c2ccc(O)cc2)cc(CN(C)C)c1O` gave a TGI of more than 100 µM.

Another test deals with SF-539 CNS. The test can be described thus: NCI anticancer screen, dose series, 48 h.
As for `O=P(c1ccccc1)(c1ccccc1)N1O[C@@H](c2ccccc2)C=C[C@H]1c1ccccc1`, the TGI is 33 µM.
In the case of `Cc1c2c(n(CCc3ccc(Cl)cc3)c1C)NN=C(C#N)S2(=O)=O`, the TGI was more than 100 µM.
Same read-out and setting: the result for `CCN(C(=S)N[C@@H](Cc1ccccc1)C(=O)N[C@@H](CC(C)C)C(=O)OC)c1ccccc1` reads more than 100 µM.
With `COc1ccc2cc(-c3ccc(-c4ccc(C(=N)N)s4)s3)ccc2c1`, the GI50 was 3.91 µM and the TGI was determined as 19.2 µM.
As for `C/C(CC1C2CCCC1C2)=N\NC(N)=O` (stereo unspecified), the TGI is more than 100 µM.
Same read-out and setting: the result for `C1=CC2=CC=CC3c4nc5ccc6ccccc6c5nc4C(=C1)C23` (stereo unspecified) reads more than 100 µM; that for `O=C(CCCN1CCC2(CC1)CC(=O)N(N1CCOCC1)C2=O)c1ccccc1`, more than 100 µM.
As for `COc1ccc(C(OCC2OC(n3cc(C)c(=O)[nH]c3=O)CC2n2cc(Cn3cc(F)c(=O)[nH]c3=O)nn2)(c2ccccc2)c2ccccc2)cc1` (stereo unspecified), the TGI turned out to be 23.9 µM.
In the case of `CCN(CC)CCOc1ccc(N2C(=O)c3cc(OC)c(OC)cc3C2=O)cc1`, the TGI is more than 100 µM.
Turning to `COc1ccc(C#CC(=O)O)c(OC)c1`, the TGI is more than 100 µM.
`CCOC(=O)NC(=S)NN(C)C1=NCC(C)(C)S1` came in with a TGI of more than 100 µM.
Same read-out and setting: the result for `O=C(CNc1ccccc1Cl)Nn1c(-c2ccccc2)nc2ccccc2c1=O` reads 43.6 µM; that for `Cc1csc(-c2cn(C)c3c2C(=O)C(N)=CC3=O)n1`, more than 100 µM; that for `C/C=C/C=C/c1nc(C#N)c(N)o1`, more than 100 µM.
`O=c1c2ccccc2nc2[nH][nH]c(=S)n12` came in with a TGI of more than 100 µM.
For `CC(C)(C)OC(=O)NCC(=O)NCC(=O)NCC(=O)NCC(=O)O` (Boc-GGGG-OH), the TGI is more than 100 µM.
On to `CC(C)COP(=O)(OCC(C)C)C(NS(=O)(=O)c1ccccc1)(C(F)(F)F)C(F)(F)F`, for which the TGI was found to be 29.1 µM.
As for `N#C/C(=C\c1cc(Br)c(O)c(Br)c1)c1cccnc1`, the TGI stood at 71.5 µM.
Same read-out and setting: the result for `CC(O)C1CC1(CO)CNc1cc(Cl)nc(N)n1` (stereo unspecified) reads more than 100 µM; that for `CN(C)Cc1cc(C(=O)/C=C/c2ccc(O)cc2)cc(CN(C)C)c1O`, more than 100 µM.

In the next test the test system is PC-3 prostate. In words: NCI anticancer screen, dose series, 48 h.
Take `O=P(c1ccccc1)(c1ccccc1)N1O[C@@H](c2ccccc2)C=C[C@H]1c1ccccc1`: the TGI worked out at 11.7 µM.
On the same count and under the same terms, the value for `Cc1c2c(n(CCc3ccc(Cl)cc3)c1C)NN=C(C#N)S2(=O)=O` was more than 100 µM.
With `CCN(C(=S)N[C@@H](Cc1ccccc1)C(=O)N[C@@H](CC(C)C)C(=O)OC)c1ccccc1`, the TGI was more than 100 µM.
`COc1ccc2cc(-c3ccc(-c4ccc(C(=N)N)s4)s3)ccc2c1`: the GI50 was 2.13 µM and the TGI was 4.33 µM.
